From US10478464B2, “Compositions and methods of use” (priority 2009, dated 2019)

Assays:
[1] = Maximal tolerated dose (MTD), single IV bolus; type: in vivo
Procedure: The purpose of this study was to determine the maximum tolerated dose of 8-HHA following intravenous (IV) administration in ICR mice. A racemic mixture of 8-HHA, placebo, and vehicle were administered to 20 ICR female mice with weight of 25-30 grams, respectively. The 8-HHA was formulated in nanolipid at concentration of 0, 10, 20 and 40 mg/ml. There were 4 animals per group and they were injected with 0, 10, 20 and 40 mg/kg dose of 8-HHA Mice were given a single bolus dose via the tail vein according to group assignment. One week after dosing mice were sacrificed. Daily clinical observations were performed 15 minutes and 1 hour post dose. The mice were observed daily for any adverse effects until necropsy on study day 8. Body weights were recorded for all the mice prior to test substance administration, and every other day throughout the test period. This entire study was performed at Toxikon Corporation, Bedford, Mass.

[2] = system: SNU449 liver cancer cell line; experiment: Cell survival, colorimetric MTT assay, SNU449; type: cell-based; details: 100 μM, 72 hours
Procedure: 2) Against the liver cancer cell lines: The effect of the racemic mixture of 8-HHA and that of the individual enantiomers, namely S and R enantiomers, were examined on survival of PLC/PRF/5 (also referred to as “PLC-5” or “PLC5”), Hep3B and SNU449 (also referred to as “SNU”) liver cancer cell lines. The cell viability was examined in the exponential growth phase with 100 μM of 8-HHA for 72 hours using colorimetric MTT assay. In separate assays, PLC-5 cells were treated with different concentrations of S-enantiomer of 8-HHA ranging from 20-100 μM for 72 hours.

[3] = system: HOP92 cells; experiment: Lung cancer xenograft mouse model (HOP92); type: in vivo, BALB/c nu/nu mice; details: for Mean ± SEM Tumor Volume (HOP-92): 10 mg/kg IP
Description: The purpose of this study was to determine anti tumor efficacy of 8-HHA in lung cancer using HOP92 cells.
Animals and care: Thirty BABL/c nude, non-pregnant and nulliparous female mice that are 5-6 weeks old and weighing 16-20 gms were used in this study. BALB/c nu/nu mice were used because they have been historically used in xenograft studies to test anti-tumor efficacy of drug candidates. Mice were acclimatized for minimum 5 days, under same conditions as for the actual test. Mice were housed at room temperature 68±5° F. with room Relative Humidity of 30-70%, air Exchanges per Hour of a minimum of 10 changes per hour, lights exposure of 12-hour light/dark cycle, full spectrum fluorescent lights. The mice were housed in groups in ventilated micro-isolator cages made up of polycarbonate. The mice were using autoclaved laboratory grade bedding and were provided ad libitum with irradiated pellets and autoclaved water. There were no known contaminants present in the feed, water, or bedding expected to interfere with the test data. The laboratory and animal rooms were maintained as limited-access facilities.
Route of injection and dose: 8-HHA was administered through intraperitoneal (IP) injection.
Tumor Induction: The cell line HOP92 were cultured according to recommended specifications at Vanas Oncology as above discussed in Example 20. Cells were trypizinized and counted using the Trypan-blue viability test using a hemocytometer. Cell counts in quadrants of the hemocytometer were converted to a cells/mL value, which will enable isolation of the appropriate number of cells per mouse. Each mouse was inoculated subcutaneously in the right flank region with 0.2 mL of a 50% RPMI/50% Matrigel™ mixture containing a suspension of tumor cells (5×10^6 cells/mouse). Tumors were observed twice weekly until well established. Tumor volume was calculated using the formula: Tumor weight (mg)=(a×b^2/2) where ‘b’ is the smallest diameter and ‘a’ is the largest diameter in millimeters.
Allocation of Animals: Once the established tumors reach a mean calculated volume of approximately 50-100 mg, the mice were randomized, using appropriate software, into treatment groups in order to reduce the variability of tumor sizes per group.
Pre Dose Procedure: Acclimated animals were weighed and observed for clinical signs of toxicity prior to dosing on Day 1.
The first day of dosing is Day 1. On Day 1,8-HHA, and vehicle injections are administered according to the study design in Table 9 below.
Post Dose Procedure: Following treatment, tumor and mouse body weight measurements were recorded twice weekly and gross observation was made at least once daily. Mice with tumors that were not palpable was considered complete regressions. Percentage of mice mortality and time of death were recorded for every group in the study. Animals may be defined as moribund and sacrificed if one or more of the following criteria are met: • Loss of body weight of 20% or greater in a 1 week period. • Mice that inhibit normal physiological function such as eating, drinking, mobility, and ability to urinate and/or defecate. • Tumors that exceed a maximum size of 2000 mg as measured by calipers. • Ulcerated tumors, or tumors that bleed or produce exudates. • Prolonged, excessive diarrhea leading to excessive weight loss (>20%). • Persistent wheezing and respiratory distress. • Prolonged or excessive pain or distress as defined by clinical observations such as: prostration, hunched posture, paralysis/paresis, distended abdomen, ulcerations, abscesses, seizures, and/or hemorrhages.

[4] = system: leukemia cell lines (CCRF-CEM, K-562, SR, MOLT-4, RPMI-8226, HL-60(TB)); experiment: NCI 60 human tumor cell line screen (MTT), leukemia lines; type: cell-based; details: 10 μM
[5] = Water solubility (statement); type: physicochemical

CCCCCCCCC(O)CCCCCCC(=O)O (racemic) [Sample 8-HHA, 8-hydroxy-palmitic acid]
tolerability / clinical abnormalities ([1]; 10 mg/kg and 20 mg/kg IV): did not demonstrate any clinical abnormalities
mice that died shortly after being dosed ([1]; high dose 40 mg/kg IV, 4 animals per group): Two
MTD at 8 days ([1]; mouse, in vivo, ICR female mice, single IV bolus, nanolipid formulation, read-out: maximum tolerated dose): 20 mg/kg
body weight at day 6 and 8 ([1]; single IV bolus): did not vary from pre dose weight
effect on survival of SNU cell line [2]: no major effect
Mean ± SEM Tumor Volume (HOP-92) ([3]; Day 16): 88.78±28.61 mm^3
Mean ± SEM Tumor Volume (HOP-92) ([3]; Day 18): 82.02±25.93 mm^3
decrease in tumor volume vs control group ([3]; T1 10 mg/Kg, day 16): 58.6%
decrease in tumor volume vs control group ([3]; T1 10 mg/Kg, day 18): 68.2%
decrease in tumor volume vs control group ([3]; T2 100 mg/Kg, day 16): 56.5%
decrease in tumor volume vs control group ([3]; T2 100 mg/Kg, day 18): 73.1%
tumor growth inhibition, in words ([3]; both T1 (10 mg/Kg) and T2 (100 mg/Kg)): significantly inhibited tumor growth in mice from day 16
suppressed growth of leukemia cell lines [4]: 40-96%
water solubility [5]: poorly water soluble
